Results on 26 molecules are retold here after US8877741B2, “Pyrrolidine derivatives, pharmaceutical compositions and uses thereof” (Boehringer Ingelheim International GmbH, priority 2013, dated 2014).

A word on the IC50: it is the midpoint of a concentration-inhibition curve.

Sequence of human ACC2 (O00763 129-2458): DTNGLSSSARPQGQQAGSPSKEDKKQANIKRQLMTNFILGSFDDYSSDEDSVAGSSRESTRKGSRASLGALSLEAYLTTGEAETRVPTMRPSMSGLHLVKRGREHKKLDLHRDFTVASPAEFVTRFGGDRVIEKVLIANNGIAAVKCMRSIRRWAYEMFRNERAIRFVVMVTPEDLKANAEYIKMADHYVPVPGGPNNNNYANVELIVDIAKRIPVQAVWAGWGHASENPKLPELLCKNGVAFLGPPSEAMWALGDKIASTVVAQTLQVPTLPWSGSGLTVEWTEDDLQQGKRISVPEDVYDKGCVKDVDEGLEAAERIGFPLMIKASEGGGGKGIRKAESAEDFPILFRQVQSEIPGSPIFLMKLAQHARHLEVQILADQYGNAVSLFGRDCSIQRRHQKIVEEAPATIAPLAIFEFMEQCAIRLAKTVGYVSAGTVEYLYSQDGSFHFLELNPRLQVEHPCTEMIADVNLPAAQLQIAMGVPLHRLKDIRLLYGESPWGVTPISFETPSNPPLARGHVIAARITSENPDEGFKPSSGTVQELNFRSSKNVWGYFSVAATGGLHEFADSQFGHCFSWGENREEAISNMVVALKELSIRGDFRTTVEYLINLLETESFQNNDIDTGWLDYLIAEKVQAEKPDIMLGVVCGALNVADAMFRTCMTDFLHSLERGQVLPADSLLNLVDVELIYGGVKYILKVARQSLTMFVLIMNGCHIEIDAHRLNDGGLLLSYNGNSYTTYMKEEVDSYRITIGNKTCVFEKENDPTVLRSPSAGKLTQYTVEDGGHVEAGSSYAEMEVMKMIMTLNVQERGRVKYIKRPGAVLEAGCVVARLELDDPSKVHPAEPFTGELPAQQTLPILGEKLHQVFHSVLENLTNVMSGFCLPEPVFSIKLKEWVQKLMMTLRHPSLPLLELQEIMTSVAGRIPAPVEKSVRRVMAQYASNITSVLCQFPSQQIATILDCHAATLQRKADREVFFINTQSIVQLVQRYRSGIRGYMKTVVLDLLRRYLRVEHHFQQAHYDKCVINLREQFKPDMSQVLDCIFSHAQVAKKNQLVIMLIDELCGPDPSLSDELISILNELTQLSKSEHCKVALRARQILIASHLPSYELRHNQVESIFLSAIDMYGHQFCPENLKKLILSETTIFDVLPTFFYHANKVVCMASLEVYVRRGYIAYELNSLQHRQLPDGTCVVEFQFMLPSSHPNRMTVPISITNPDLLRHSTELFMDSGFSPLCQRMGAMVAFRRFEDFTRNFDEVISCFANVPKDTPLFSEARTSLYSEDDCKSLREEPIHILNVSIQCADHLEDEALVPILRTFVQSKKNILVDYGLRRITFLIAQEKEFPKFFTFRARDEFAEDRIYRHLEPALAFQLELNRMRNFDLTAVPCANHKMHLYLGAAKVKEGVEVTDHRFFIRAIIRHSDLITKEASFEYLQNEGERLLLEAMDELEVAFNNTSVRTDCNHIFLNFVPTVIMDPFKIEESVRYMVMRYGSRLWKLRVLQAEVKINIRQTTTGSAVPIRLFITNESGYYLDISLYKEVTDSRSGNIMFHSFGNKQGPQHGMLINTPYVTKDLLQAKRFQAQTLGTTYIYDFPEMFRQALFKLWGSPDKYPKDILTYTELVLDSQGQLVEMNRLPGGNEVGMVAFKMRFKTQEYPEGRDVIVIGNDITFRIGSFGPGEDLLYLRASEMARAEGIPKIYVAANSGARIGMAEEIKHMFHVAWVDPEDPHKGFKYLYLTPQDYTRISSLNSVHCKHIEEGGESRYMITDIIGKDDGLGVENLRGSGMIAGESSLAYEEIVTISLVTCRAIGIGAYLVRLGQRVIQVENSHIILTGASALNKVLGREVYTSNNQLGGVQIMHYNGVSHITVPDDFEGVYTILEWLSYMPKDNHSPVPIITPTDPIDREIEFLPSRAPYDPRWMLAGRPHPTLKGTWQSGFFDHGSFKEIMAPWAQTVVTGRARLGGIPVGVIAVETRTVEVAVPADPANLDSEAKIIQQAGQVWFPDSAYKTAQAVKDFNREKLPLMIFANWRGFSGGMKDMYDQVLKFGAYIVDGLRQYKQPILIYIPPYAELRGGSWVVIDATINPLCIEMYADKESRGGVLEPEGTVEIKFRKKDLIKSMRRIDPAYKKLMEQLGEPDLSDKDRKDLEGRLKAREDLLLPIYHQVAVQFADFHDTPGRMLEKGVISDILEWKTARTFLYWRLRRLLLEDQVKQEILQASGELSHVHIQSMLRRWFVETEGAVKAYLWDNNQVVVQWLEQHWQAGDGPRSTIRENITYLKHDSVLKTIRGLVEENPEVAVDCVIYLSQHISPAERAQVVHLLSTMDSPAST

The assay addresses human ACC2 (Homo sapiens (Human), UniProt O00763). As to the kind of experiment: ACC2 assay, spectrophotometric 384 well assay (NADH-linked kinetic method). To be noted: human ACC2 construct lacking the 128 N-terminal amino acids; coupled lactate dehydrogenase/pyruvate kinase reaction, 340 nm, 25° C. Format: biochemical. Put shortly:
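N-terminally truncated human ACC2 (lacking 128 residues), expressed in insect cells, was coupled to pyruvate kinase/lactate dehydrogenase, with NADH and acetyl-CoA at 2000 μM and ATP at 500 μM final. The OD340 decrease was followed over 15 min at 25 °C. Slopes were normalised to vehicle and no-acetyl-CoA controls, and IC50 came from four-parameter regression.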
`C[C@H](NC(=O)c1cn[nH]c1)c1ccc(OC2CCN(c3ccnc(OCC4CC4)c3)C2)cc1` (some centres unmarked) [Example 2.86] came in with an IC50 of 63 nM.
Under `Cc1cc(CC(=O)N[C@@H](C)c2ccc(OC3CCN(c4ccnc(OCC5CC5)c4)C3)cc2)on1` (some centres unmarked) [Example 2.87] stands 270 nM; under `C[C@H](NC(=O)c1ccnnc1)c1ccc(OC2CCN(c3ccnc(OCC4CC4)c3)C2)cc1` (some centres unmarked) [Example 2.88], 278 nM; under `CC(=O)Nc1nc(C)c(C(=O)N[C@@H](C)c2ccc(OC3CCN(c4ccc(OC[C@H]5CC5(F)F)cn4)C3)cc2)s1` (some centres unmarked) [Example 2.90], 9 nM.
The molecule `CCC(=O)N[C@@H](C)c1ccc(OC2CCN(c3ccc(OC[C@H]4CC4(F)F)cn3)C2)cc1` (some centres unmarked) [Example 2.91] came in with a half-inhibitory concentration (IC50) of 67 nM.
As for `C[C@H](NC(=O)c1cnco1)c1ccc(OC2CCN(c3ccc(OC[C@H]4CC4(F)F)cn3)C2)cc1` (some centres unmarked) [Example 2.92], 110 nM corresponded to half-maximal inhibition (IC50).
The result for `C[C@H](NC(=O)c1cn[nH]c1)c1ccc(OC2CCN(c3ccc(OC[C@H]4CC4(F)F)cn3)C2)cc1` (some centres unmarked) [Example 2.93] reads 40 nM; that for `C[C@H](NC(=O)C1CC1)c1ccc(OC2CCN(c3ccc(OC[C@H]4CC4(F)F)cn3)C2)cc1` (some centres unmarked) [Example 2.94], 84 nM.
Take `Cc1nocc1C(=O)N[C@@H](C)c1ccc(OC2CCN(c3ccnc(OCC(F)F)c3)C2)cc1` (some centres unmarked) [Example 2.95]: the IC50 is 49 nM.
The result for `COCC(=O)Nc1nc(C)c(C(=O)N[C@@H](C)c2ccc(OC3CCN(c4ccnc(OCC(F)F)c4)C3)cc2)s1` (some centres unmarked) [Example 2.96] reads 55 nM; that for `C[C@H](NC(=O)C(F)F)c1ccc(OC2CCN(c3ccnc(OCC(F)F)c3)C2)cc1` (some centres unmarked) [Example 2.97], 140 nM; that for `Cc1[nH]ncc1C(=O)N[C@@H](C)c1ccc(OC2CCN(c3ccnc(OCC(F)F)c3)C2)cc1` (some centres unmarked) [Example 2.98], 282 nM.
Under `C[C@H](NC(=O)c1cn[nH]c1)c1ccc(OC2CCN(c3ccnc(OCC(F)F)c3)C2)cc1` (some centres unmarked) [Example 2.99] stands 85 nM; under `Cc1cc(CC(=O)N[C@@H](C)c2ccc(OC3CCN(c4ccnc(OCC(F)F)c4)C3)cc2)on1` (some centres unmarked) [Example 2.100], 624 nM; under `C[C@H](NC(=O)c1cncs1)c1ccc(OC2CCN(c3ccnc(OCC(F)F)c3)C2)cc1` (some centres unmarked) [Example 2.101], 76 nM.
The result for `C[C@H](NC(=O)c1cnn(C)c1)c1ccc(OC2CCN(c3ccnc(OCC(F)F)c3)C2)cc1` (some centres unmarked) [Example 2.102] reads 136 nM; that for `C[C@H](NC(=O)c1cnc(N)o1)c1ccc(OC2CCN(c3ccnc(OCC(F)F)c3)C2)cc1` (some centres unmarked) [Example 2.103], 523 nM.
`CC(C#N)C(=O)N[C@@H](C)c1ccc(OC2CCN(c3ccnc(OCC(F)F)c3)C2)cc1` (some centres unmarked) [Example 2.104]: inhibition was half-maximal at 658 nM (IC50).
Take `C[C@H](NC(=O)[C@@H](C)O)c1ccc(OC2CCN(c3ccnc(OCC(F)F)c3)C2)cc1` (some centres unmarked) [Example 2.105]: the half-inhibitory concentration (IC50) was found to be 784 nM.
The molecule `CCC(=O)N[C@@H](C)c1ccc(OC2CCN(c3ccnc(OCC(F)F)c3)C2)cc1` (some centres unmarked) [Example 2.106] showed an IC50 of 88 nM.
`C[C@H](NC(=O)c1ccno1)c1ccc(OC2CCN(c3ccnc(OCC(F)F)c3)C2)cc1` (some centres unmarked) [Example 2.107] came in with an IC50 of 389 nM.
Under `C[C@H](NC(=O)c1ccnnc1)c1ccc(OC2CCN(c3ccnc(OCC(F)F)c3)C2)cc1` (some centres unmarked) [Example 2.108] stands 714 nM.
The molecule `C[C@H](NC(=O)C(C)(C)F)c1ccc(OC2CCN(c3ccnc(OCC(F)F)c3)C2)cc1` (some centres unmarked) [Example 2.109] showed an IC50 of 453 nM.
Under `C[C@H](NC(=O)c1ccon1)c1ccc(OC2CCN(c3ccnc(OCC(F)F)c3)C2)cc1` (some centres unmarked) [Example 2.110] stands 263 nM.
With `C[C@H](NC(=O)c1cnco1)c1ccc(OC2CCN(c3ccnc(OCC(F)F)c3)C2)cc1` (some centres unmarked) [Example 2.111], it took 107 nM to reach half-maximal inhibition (IC50).
As to `C[C@H](NC(=O)c1cnn(C)c1N)c1ccc(OC2CCN(c3ccnc(OCC(F)F)c3)C2)cc1` (some centres unmarked) [Example 2.112], the half-inhibitory concentration (IC50) turned out to be 298 nM.
